Measured values published in patent US20260097133A1, “EPIGENETIC EDITING TOOL FOR TARGETING HEPATITIS B VIRUS GENE” (priority 2023, published 2026).

What follows are substances tested on type D HBV core antigen (HBcAg) reporter cell line (assay: sgRNA lentiviral library screening, HBcAg reporter cell line (NGS reads in GFP-negative cells)). Settings: sgRNA in GFP-negative cell population, day 14 after transfection of EPIREG.
Type: cell-based
Excerpt: (§1) In this example, the type D HBV X protein (HBx), core antigen (HBcAg), and surface antigen (HBsAg) reporter cell lines were used for library screening. First, a sgRNA cell library of type D HBV gene was constructed using a reporter cell line according to the method described in example 1. The sgRNA library was packaged into lentivirus to obtain a sgRNA lentiviral library (carrying red fluorescence), the reporter cell line was infected with the lentiviral library, and the red fluorescence was sorted to obtain the sgRNA cell library. Each cell in this sorted cell library integrated a single sgRNA in the library while the cell itself carried a reporter sequence (carrying green fluorescence). The EPIREG tool described in example 2 (the amino acid sequence of the tool was SEQ ID NO: 1194) (carrying blue fluorescence) was transfected and delivered into a cell library carrying both sgRNA and reporter sequences. Red/green/blue fluorescent triple-positive cells were sorted using a flow cytometer and cultured long-term. The EPIREG transfected into the cells could work together with the sgRNA to silence GFP in the reporter. On the day 14 after transfection, the GFP-negative cell population in the cell library was sorted, the genomic DNA of the negative cell population was extracted for NGS sequencing. The sgRNAs with higher sequencing reads in the negative cell population were compared using the untreated cell library as a control reference, so as to obtain the candidate sgRNAs that could play an editing role corresponding to each reporter, respectively (the schematic diagram of this screening scheme is shown in FIG. 6, and the analysis method is referenced to the literature DOI: 10.1186/s13059-014-0554-4). The functionally validated sgRNAs for each reporter cell line are summarized in the following table (arranged by the starting position of the target sequence of each sgRNA).

Substance	Log2 FC
81 (guide ACACGGTCCGGCAGATGAGA; listed as DNA, chemistry not fully specified) [compound 81]	2.0776
1104 (guide TTCCCGATACAGAGCTGAGG; listed as DNA, chemistry not fully specified) [compound 1104]	3.9205
427 (guide CCGCAGGATTCAGCGCCGAC; listed as DNA, chemistry not fully specified) [compound 427]	3.4136
1068 (guide TGGTGAGGTGAACAATGCTC; listed as DNA, chemistry not fully specified) [compound 1068]	2.5736
841 (guide GTGAAAAAGTTGCATGGTGC; listed as DNA, chemistry not fully specified) [compound 841]	2.0112
872 (guide TAAAGACTGGGAGGAGTTGG; listed as DNA, chemistry not fully specified) [compound 872]	3.0933
628 (guide GAGGTGAAGCGAAGTGCACA; listed as DNA, chemistry not fully specified) [compound 628]	3.2225
560 (guide CTGTGCCTTGGGTGGCTTTG; listed as DNA, chemistry not fully specified) [compound 560]	2.7695
120 (guide ACTACTAGGTCTCTAGATGC; chemistry not given here) [compound 120]	2.9841
225 (guide ATACCGCCTCAGCTCTGTAT; listed as DNA, chemistry not fully specified) [compound 225]	3.966
70 (guide ACAAGAGTTGCCTGAACTTT; listed as DNA, chemistry not fully specified) [compound 70]	2.5329
39 (guide AACCCCCACTGGCTGGGGCT; listed as DNA, chemistry not fully specified) [compound 39]	3.4538
74 (guide ACAATGCTCAGGAGACTCTA; listed as DNA, chemistry not fully specified) [compound 74]	2.1202
113 (guide ACGATGTATATTTGCGGGAG; listed as DNA, chemistry not fully specified) [compound 113]	2.0632
750 (guide GGCTTCCCGATACAGAGCTG; listed as DNA, chemistry not fully specified) [compound 750]	4.6799
139 (guide AGACACCAAATACTCTATAA; listed as DNA, chemistry not fully specified) [compound 139]	2.8391
981 (guide TCTAGAAGATCTCGTACTGA; listed as DNA, chemistry not fully specified) [compound 981]	2.1673

What follows are substances tested on type D HBV X protein (HBx) reporter cell line (assay: sgRNA lentiviral library screening, HBx reporter cell line (NGS reads in GFP-negative cells)). Settings: sgRNA in GFP-negative cell population, day 14 after transfection of EPIREG.
Type: cell-based
Excerpt: as §1

Substance	Log2 FC
257 (guide ATGGGCCATCAGCGCGTGCG; listed as DNA, chemistry not fully specified) [compound 257]	6.5564
735 (guide GGCACAGACCTGGCCGTTGC; listed as DNA, chemistry not fully specified) [compound 735]	4.08
335 (guide CAGATGAGAAGGCACAGACG; listed as DNA, chemistry not fully specified) [compound 335]	4.44
450 (guide CCTGCGGACGACCCTTCTCG; listed as DNA, chemistry not fully specified) [compound 450]	4.242
650 (guide GATTGAATACATGCATACAA; listed as DNA, chemistry not fully specified) [compound 650]	3.726
762 (guide GGGCAACGGGGTAAAGGTTC; listed as DNA, chemistry not fully specified) [compound 762]	4.8522
788 (guide GGGTTGCGTCAGCAAACACT; listed as DNA, chemistry not fully specified) [compound 788]	4.4031
